{"source": "patent US20070225278A1", "about": "“Methods for treating cognitive and other disorders” (priority 2006, published 2007)", "key": {"[1]": {"test": "Antidepressant-like effects (MED), Table 2", "format": "in vivo", "details": "minimal effective dose", "from_the_text": "Table 2, below, summarizes the dose at which antidepressant-like effects are observed, the dose at which sexual dysfunction occurs, and the therapeutic window."}, "[2]": {"system": "acetylcholine in medial prefrontal cortex", "test": "In vivo microdialysis, acetylcholine in medial prefrontal cortex", "details": "17 mg/kg s.c., rat", "protocol": "(§1) Animals: Adult male Sprague-Dawley rats (Charles River, Wilmington, Mass.) weighing 280-350 g at the time of surgery were used for all microdialysis experiments. Adult male Long-Evans rats (Charles River, Wilmington, Mass.) weighing 180-220 g were used for NOR studies. Rats were housed individually for recognition memory studies. All animals had free access to food and water and were group housed in the AAALAC-accredited facility that was maintained on a 12 h light dark cycle (lights on at 0600 h) for at least 1 week prior to surgery or behavioral testing. All in vivo studies were performed in accordance to the ‘Guide for the Care and Use of Laboratory Animals’ as adopted and promulgated by the National Institutes of Health (Pub. 85-23, 1985). […]\nAnalysis of Acetylcholine Dialysate levels of acetylcholine were determined using LC/MS/MS. […]\nAcetylcholine data were quantified using peak area against an internal standard and acquired using Masslynx software (Micromass, Beverly, Mass., USA). The mean of the concentration of baseline samples was calculated and denoted as 0%. All sample values were expressed as a percent change from this pre-injection mean baseline value (% change from baseline). Neurochemical data, excluding pre-injection values, were analyzed by a two-way analysis of variance (ANOVA) with repeated measures (time). […]"}, "male Long-Evans rats": {"system": "male Long-Evans rats", "test": "Novel object recognition (NOR)", "format": "in vivo, rat", "protocol": "as §1, with “testing.” for “testing. All in vivo studies were performed in accordance to the ‘Guide for the Care and Use of Laboratory Animals’ as adopted and promulgated by the National Institutes of Health (Pub. 85-23, 1985).”\nNovel object recognition (NOR) training and testing was performed in a circular field (diameter ˜70 cm, 30 cm high) constructed out of plastic and containing bedding. […] Animal performance was tracked by video and monitored by an experimenter located outside of the testing room. […]\nThe visual recognition task was divided into 3 sessions—habituation, a sample trial and a choice trial. […] The amount of time exploring the objects was recorded for the entire trial. […]\nThe effect of treatment on object exploration during the sample trial was examined using a one-way ANOVA on total contact time followed by Fisher's LSD group mean pairwise comparisons. The amount of time exploring the novel and familiar objects across treatment groups was analyzed using a repeated measures ANOVA followed by Fisher's LSD post hoc comparisons. […]"}}, "data": [{"smiles": "c1cc2c3c(c1)[C@H]1CCC[C@H]1N3CCNC2", "note": "[Compound 1]", "values": [{"measurement": "Antidepressant-like effects (MED mg/kg)", "setting": "[1]", "value": 0.3, "unit": "mg/kg"}, {"measurement": "maximal increase in acetylcholine with respect to baseline", "setting": "[2]", "value": 63, "unit": "%"}, {"measurement": "effect on exploration during the sample trial", "setting": "male Long-Evans rats; 1 mg/kg orally", "value": "No significant effect"}, {"measurement": "exploration of novel vs familiar object in choice trial (retention)", "setting": "male Long-Evans rats; 1 mg/kg orally 60 minutes prior to sample trial, 48 hour retention interval", "value": "significantly greater time spent exploring the novel than the familiar object"}]}]}
